# Legend:
# [1] = cited from earlier work; for crossing of the blood-brain barrier / access to the CNS: after administration
# LAT1 transporter = target: T1, LAT1 transporter (Homo sapiens, UniProt Q01650); assay: AV-101 uptake in HEK-293 cells overexpressing LAT1; assay type: cell-based
# T1 construct: expressed in transfected cells; host or cells: HEK-293
# Excerpt: The L-Type Amino Acid Transporter 1 (LAT1, SLC7A5) is part of the SLC7 family and forms a heterodimer with CD98 via a disulphide bond (Mastroberardino, L. et al. Amino-acid transport by heterodimers of 4F2hc/CD98 and members of a permease family. Nature 395, 288-291, doi: 10.1038/26246 (1998)). CD98 (4F2hc, SLC3A2) is a type II glycoprotein that functions as a chaperone for LAT1, stabilizing and facilitating its translocation to the plasma membrane. LAT1 is the functional unit of the complex (Napolitano, L. et al. LAT1 is the transport competent unit of the LAT1/CD98 heterodimeric amino acid transporter. The international journal of biochemistry & cell biology, doi: 10.1016/j.biocel.2015.08.004 (2015)) and substrates include a range of large neutral amino acids such as tyrosine, leucine, isoleucine, valine and phenylalanine as well as pharmaceutical drugs including L-DOPA and gabapentin. (Dickens, D. et al. Transport of gabapentin by LAT1 (SLC7A5). Biochem Pharmacol 85, 1672-1683, doi: 10.1016/j.bcp.2013.03.022 (2013); Uchino, H. et al. Transport of amino acid-related compounds mediated by L-type amino acid transporter 1 (LAT1): insights into the mechanisms of substrate recognition. Molecular pharmacology 61, 729-737 (2002)). The SLC7A5 locus with rsid rs28582913 has a single nucleotide polymorphism, wherein the minor allele, T instead of C, at position 87843494 on chromosome 16, is present in approximately 18-56% of the population depending on ethnicity (https://www.ncbi.nlm.nih.gov/snp/rs28582913#frequency_tab), and results in a 1.94 fold increase in the kynurenine metabolite. […] Additionally, physiological amino acids reduce LAT1 mediated transport of AV-101.
# [2] = system: Human brain endothelial cells; assay: AV-101 uptake in human brain endothelial cells; assay type: cell-based
# Excerpt: The L-Type Amino Acid Transporter 1 (LAT1, SLC7A5) is part of the SLC7 family and forms a heterodimer with CD98 via a disulphide bond (Mastroberardino, L. et al. Amino-acid transport by heterodimers of 4F2hc/CD98 and members of a permease family. Nature 395, 288-291, doi: 10.1038/26246 (1998)). CD98 (4F2hc, SLC3A2) is a type II glycoprotein that functions as a chaperone for LAT1, stabilizing and facilitating its translocation to the plasma membrane. LAT1 is the functional unit of the complex (Napolitano, L. et al. LAT1 is the transport competent unit of the LAT1/CD98 heterodimeric amino acid transporter. The international journal of biochemistry & cell biology, doi: 10.1016/j.biocel.2015.08.004 (2015)) and substrates include a range of large neutral amino acids such as tyrosine, leucine, isoleucine, valine and phenylalanine as well as pharmaceutical drugs including L-DOPA and gabapentin. (Dickens, D. et al. Transport of gabapentin by LAT1 (SLC7A5). Biochem Pharmacol 85, 1672-1683, doi: 10.1016/j.bcp.2013.03.022 (2013); Uchino, H. et al. Transport of amino acid-related compounds mediated by L-type amino acid transporter 1 (LAT1): insights into the mechanisms of substrate recognition. Molecular pharmacology 61, 729-737 (2002)). […]
# [3] = system: depression, major depressive disorder; assay: Treatment of depression / MDD in genotyped subjects; assay type: in vivo, human
# Excerpt: In subjects with the BDNF variant, the A allele of the SNP rs6265 a higher dose of the L-4-CI-KYN results in the mood-enhancing or anti-depressive response. Subjects affirmatively report feelings of well-being. This is consistent with reports that the glutamatergic system contributes to the pathophysiology of depression and that stress can induce changes in NMDA receptors. See, for example, Calabrese, et al., PloS one vol. 7,5 (2012): e37916. Twenty-five subjects, both male and female, ages 18 to 65, with a diagnosis of MDD are treated with either L-4-CI-KYN (1,080 or 1,440 mg/day given orally) for 2 weeks, similar in design to similar studies. See e.g., Ibrahim et al. J Clin Psychopharmacol. 2012 August; 32(4): 551-557; Zarate et al. Biol Psychiatry. 2013 Aug. 15; 74(4):257-64; Zarate et al. Arch Gen Psychiatry. 2006 August; 63(8):856-64; Zarate et al. 2005 Biological psychiatry 57 (4), 430-432. The subjects are pre-screened to be positive for at least one of the following variant SNPs, the T allele of SNP rs61825638, the T allele of SNP rs28582913, or the C allele of rs2121337, or positive for the G allele of rs6265. In addition, a control group of twenty-five subjects is pre-screened as lacking any of: the T allele of SNP rs61825638, the T allele of SNP rs28582913, or the C allele of rs2121337, or lacking the G allele of SNP rs6265. […] Montgomery et al. 1979, Brit. J. Psych., 134:382-389. […]
# T1 sequence (Q01650 whole entry): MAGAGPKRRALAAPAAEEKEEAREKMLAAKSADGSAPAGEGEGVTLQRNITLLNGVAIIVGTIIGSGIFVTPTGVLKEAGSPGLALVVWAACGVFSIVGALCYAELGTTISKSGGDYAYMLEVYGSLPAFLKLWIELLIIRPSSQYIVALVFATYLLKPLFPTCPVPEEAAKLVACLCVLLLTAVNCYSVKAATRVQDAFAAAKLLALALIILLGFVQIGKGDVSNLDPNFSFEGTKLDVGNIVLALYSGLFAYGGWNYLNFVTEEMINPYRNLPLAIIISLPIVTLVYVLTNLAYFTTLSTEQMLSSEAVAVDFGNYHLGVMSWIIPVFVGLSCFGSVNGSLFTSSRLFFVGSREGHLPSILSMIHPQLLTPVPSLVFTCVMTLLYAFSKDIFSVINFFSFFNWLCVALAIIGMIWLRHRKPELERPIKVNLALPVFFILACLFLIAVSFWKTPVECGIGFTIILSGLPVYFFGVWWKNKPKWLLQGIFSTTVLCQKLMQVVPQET
# T1 sequence (P08195 102-630 partner): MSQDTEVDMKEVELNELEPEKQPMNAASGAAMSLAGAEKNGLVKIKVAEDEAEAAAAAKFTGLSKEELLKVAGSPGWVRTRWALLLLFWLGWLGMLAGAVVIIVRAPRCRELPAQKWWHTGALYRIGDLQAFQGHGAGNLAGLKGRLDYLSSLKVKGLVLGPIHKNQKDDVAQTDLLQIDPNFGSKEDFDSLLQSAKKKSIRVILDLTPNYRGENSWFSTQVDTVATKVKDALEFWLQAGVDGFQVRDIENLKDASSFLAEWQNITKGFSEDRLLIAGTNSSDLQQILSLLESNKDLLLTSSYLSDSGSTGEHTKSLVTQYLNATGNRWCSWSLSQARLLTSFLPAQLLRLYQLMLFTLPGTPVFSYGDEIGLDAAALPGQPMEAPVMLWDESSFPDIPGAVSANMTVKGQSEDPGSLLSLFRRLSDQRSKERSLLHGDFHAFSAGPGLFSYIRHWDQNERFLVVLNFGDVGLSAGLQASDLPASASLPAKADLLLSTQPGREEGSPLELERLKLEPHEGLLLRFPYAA
"effect on AV-101 uptake (LAT1 transporter; LAT1 inhibitor added, HEK-293 cells overexpressing LAT1)",substrate status for the LAT1 transporter (LAT1 transporter),AV-101 uptake (LAT1 transporter; HEK-293 cells overexpressing LAT1),AV-101 uptake [2],SMILES,crossing of the blood-brain barrier / access to the CNS [1],effect on AV-101 uptake ([2]; in the presence of JPH203),"HDRS and/or MADRS total scores ([3]; MDD subjects, 1,080 or 1,440 mg/day orally for 2 weeks)","mood enhancing or anti-depressive activity ([3]; subjects with KMO rs61825638 T, SLC7A5 rs28582913 T or ACMSD rs2121337 C variant)",conversion to 7-chlorokynurenic acid ([1]; within activated astrocytes)
,,,,"O=C(O)c1cc(O)c2ccc(Cl)cc2n1 [7-chlorokynurenic acid, reference compound]",does not cross the blood-brain barrier,,,,
substantially reduced,,,,"Nc1cc(COc2c(Cl)cc(C[C@H](N)C(=O)O)cc2Cl)c2oc(-c3ccccc3)nc2c1 [JPH203, reference compound]",,significantly diminished,,,
,substrate for the LAT1 transporter,substantial increase,significant uptake,"Nc1cc(Cl)ccc1C(=O)CC(N)C(=O)O [L-4-CI-KYN, L-4-chlorokynurenine]",readily gains access to the central nervous system,,significant decrease,"observed for a higher number of subjects, or for the same number of patients but at a lower dose",efficiently converted

# Source: patent US20220202756A1, “GENETIC VARIANTS ASSOCIATED WITH RESPONSE TO TREATMENT OF NEUROLOGICAL DISORDERS” (VISTAGEN THERAPEUTICS, INC., priority 2019, published 2022)
